PubChem BioAssay AID1845219 (Molecular Pharmacology Branch, DTP, NCI, 2023)

Test system: SYO-1 tumor spheroids, viability % test/control
Test: Anticancer human tumor SYO-1 cell line growth inhibition;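 note: spheroids exposed to agents for 7 days before viability read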;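 for viability, T/C: 100% = DMSO vehicle control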
Conditions: spheroids with HUVEC and MSC; for IC50: curve of first compound; for viability, T/C: stronger effect = lower value
In short: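 Single agents and combinations were tested on spheroids built from tumor cells plus HUVEC and hMSC, at half-log dilutions starting at or near clinical Cmax, else 10 microM; final DMSO 0.25% (v/v).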

CC1COCCN1c1cc(-c2ccnn2C)c2ccnc(-c3ccn[nH]3)c2n1 (stereo not given) + CC[C@@]1(O)C(=O)OCc2c1cc1n(c2=O)Cc2cc3c(CN(C)C)c(O)ccc3nc2-1
IC50 (second compound 0.003 µM): < 31.6 nM | IC50 (second compound 0.00949 µM): < 31.6 nM | IC50 (second compound 0.03 µM): < 31.6 nM | IC50 (second compound 0.0949 µM): < 31.6 nM | IC50 (second compound 0.3 µM): < 31.6 nM | viability, T/C (second compound 0.003 µM, first compound 0.0316 µM): 2.41% | viability, T/C (second compound 0.003 µM, first compound 0.1 µM): 1.6% | viability, T/C (second compound 0.003 µM, first compound 0.316 µM): 1.52% | viability, T/C (second compound 0.003 µM, first compound 1 µM): 1.01% | viability, T/C (second compound 0.003 µM, first compound 3.16 µM): 0.46% | viability, T/C (second compound 0.003 µM, first compound 10 µM): 0.49% | viability, T/C (second compound 0.00949 µM, first compound 0.0316 µM): 1.89% | viability, T/C (second compound 0.00949 µM, first compound 0.1 µM): 1.76% | viability, T/C (second compound 0.00949 µM, first compound 0.316 µM): 1.42% | viability, T/C (second compound 0.00949 µM, first compound 1 µM): 0.94% | viability, T/C (second compound 0.00949 µM, first compound 3.16 µM): 0.47% | viability, T/C (second compound 0.00949 µM, first compound 10 µM): 0.42% | viability, T/C (second compound 0.03 µM, first compound 0.0316 µM): 1.75% | viability, T/C (second compound 0.03 µM, first compound 0.1 µM): 1.64% | viability, T/C (second compound 0.03 µM, first compound 0.316 µM): 1.18% | viability, T/C (second compound 0.03 µM, first compound 1 µM): 0.74% | viability, T/C (second compound 0.03 µM, first compound 3.16 µM): 0.43% | viability, T/C (second compound 0.03 µM, first compound 10 µM): 0.42% | viability, T/C (second compound 0.0949 µM, first compound 0.0316 µM): 1.31% | viability, T/C (second compound 0.0949 µM, first compound 0.1 µM): 1.48% | viability, T/C (second compound 0.0949 µM, first compound 0.316 µM): 0.96% | viability, T/C (second compound 0.0949 µM, first compound 1 µM): 0.68% | viability, T/C (second compound 0.0949 µM, first compound 3.16 µM): 0.44% | viability, T/C (second compound 0.0949 µM, first compound 10 µM): 0.41% | viability, T/C (second compound 0.3 µM, first compound 0.0316 µM): 1.79% | viability, T/C (second compound 0.3 µM, first compound 0.1 µM): 1.55% | viability, T/C (second compound 0.3 µM, first compound 0.316 µM): 1.05% | viability, T/C (second compound 0.3 µM, first compound 1 µM): 0.66% | viability, T/C (second compound 0.3 µM, first compound 3.16 µM): 0.47% | viability, T/C (second compound 0.3 µM, first compound 10 µM): 0.49%
